Here are results for three compounds from US11879013B2, “Combination therapies with bispecific anti-EGFR/c-Met antibodies and third generation EGFR tyrosine kinase inhibitors” (Janssen Biotech, Inc., priority 2019, dated 2024).

Series [1] in a line: Body weight and clinical signs of nude mice bearing H1975-HGF xenografts. The settings on record: for day found dead or euthanized / mice found dead or euthanized due to negative clinical signs: H1975-HGF study; for mice found dead or euthanized due to negative clinical signs: n=10/group, unclear whether due to tumor burden or treatment; for body weight change compared to the control group: H1975-HGF-tumor-bearing mice, 10 mg/kg, JNJ-372 at Day 28, TKI-containing groups p<0.05. Format: in vivo, female athymic nude mice.
Procedure: (§1) Female athymic nude mice were used in the studies (n=10/group). Treatment began when SC tumors reached approximately 100 to 300 mm^3 in size. and dosing was initiated according to the treatment plan summarized in Table 2. […] The control group was dosed with vehicle orally daily for 21 days, and the isotype control antibody was dosed twice a week IP for 3 weeks. Mice were monitored for body weight and tumor volume up to Day 95, and were euthanized when individual tumor volume reached 2,000 mm^3 or at study conclusion.
(§2) Relative body weight of individual mice was calculated using the formula: (W/W0)×100, where ‘W’ represents body weight on a particular day, and ‘W0’ represents body weight at initiation of treatment. Body weight was graphically represented as mean % of initial body weight±SEM.
Tumor volume and body weight data were graphically represented using Prism software (GraphPad, version 7). Statistical significance was evaluated for all pairwise comparisons on the last day of the study when at least eight mice remained in each group. Differences between groups were considered significant when p≤0.05. […] Logarithmic transformation (base 10) was performed if individual longitudinal response trajectories were not linear. The information derived from this model was used to make pairwise treatment comparisons to the control group or between all the treatment groups.
The experimental design was as described in Example 1 except that H1975 cells stably transfected to express hepatocyte growth factor (HGF) (H1975-HGF cells) were used in the studies and hereafter referred to as H1975-HGF-CNT.

A further series addresses mouse c-Met (Mus musculus, UniProt P16056). Kind of series: Binding of JNJ-372 to mouse c-Met.
The subject of series [2] is H1975 human lung xenografts. The experiment in a line: Antitumor activity in H1975 human lung carcinoma xenograft model. The settings on record: for TGI as compared to controls: Day 28, 10 mg/kg each agent, TKI po qd x 21, JNJ-372 ip biwk x 3. In general terms: Xenograft models place foreign cells or tissue in a host animal.
Procedure: The animals were fed ad libitum water (reverse osmosis, 1 ppm Cl) and NIH 31 Modified and Irradiated Lab Diet® consisting of 18.0% crude protein, 5.0% crude fat, and 5.0% crude fiber. The mice were housed on irradiated Enrich-o'Cobs™ Laboratory Animal Bedding in static microisolators on a 12-hour light cycle at 20-22° C. (68-72° F.) and at 40-60% humidity. All studies complied with the recommendations of the Guide for Care and Use of Laboratory Animals with respect to restraint, husbandry, surgical procedures, feed and fluid regulation, and veterinary care.
NCI-H1975 cells were grown to mid-log phase in RPMI 1640 medium containing 10% fetal bovine serum, 2 mM glutamine, 100 units/mL sodium penicillin G, 25 μg/mL gentamicin, and 100 μg/mL streptomycin sulfate. The tumor cells were cultured in tissue culture flasks in a humidified incubator at 37° C., in an atmosphere of 5% CO2 and 95% air.
On the day of implant, the NCI-H1975 cells were harvested during log phase growth and resuspended in phosphate buffered saline (PBS) at a concentration of 5×10^7 cells/mL. Xenografts were initiated by subcutaneously implanting 5×10^6 NCI-H1975 cells per animal (0.1 mL suspension) into the right flank of each test animal and tumors were monitored as their volumes approached the target range of 150-200 mm^3. Fifteen days later, animals were sorted into bins by calculated tumor volumes based on vernier caliper measurements of tumor width and length to the nearest mm. The animals were then heuristically sorted among treatment groups, balancing the distribution of small to large sized tumor volumes among group assignments. […] Tumor size, in mm3, was calculated using the following formula: Tumor Volume=(w^2×l)/2 where w=width and l=length, in mm, of the tumor. […]
Female athymic nude mice were used in the studies (n=10/group). […] Mice were monitored for body weight and tumor volume up to Day 95, and were euthanized when individual tumor volume reached 2,000 mm^3 or at study conclusion.
Tumor volume data were graphically represented as the mean tumor volume±SEM. Tumor volume was calculated using the formula: tumor volume (mm^3)=(D×d2)/2; where ‘D’ represents the larger diameter, and ‘d’ the smaller diameter of the tumor as determined by caliper measurements.
The % TGI was defined as the difference between mean tumor burden of the treated and control group, calculated as % ΔTGI=([(TVc−TVc0)−(TVt−TVt0)]/(TVc−TVc0))×100 where ‘TVc’ is the mean tumor burden of a given control group, ‘TVc0’ is the mean initial tumor burden of a given control group, ‘TVt’ is the mean tumor burden of the treated group, and ‘TVt0’ is the mean initial tumor burden of the treated group.
For a further series, the target named is mouse EGFR (Mus musculus, UniProt Q01279). The experiment in a line: Binding of JNJ-372 to mouse EGFR.
The test system of the next series is H1975-HGF xenografts. Kind of series: Antitumor activity in H1975-HGF human lung carcinoma xenograft model. The class given is in vivo, female athymic nude mice. The note with it: for TGI as compared to controls: Day 28, 10 mg/kg each agent, TKI po qd x 21, JNJ-372 ip biwk x 3.
Series [3] can be described thus: Body weight and clinical signs of nude mice bearing H1975 xenografts. The class given is in vivo, female athymic nude mice. The settings on record: for body weight change compared to the control group: H1975-xenograft-bearing nude mice, 10 mg/kg, JNJ-372 at Day 29, TKI-containing groups p<0.05; for day of euthanasia due to negative clinical signs / animals euthanized due to negative clinical signs: H1975 study; for animals euthanized due to negative clinical signs: n=10/group, unclear whether due to tumor burden or treatment.
Procedure: as §1, §2
Statistical significance was evaluated for all pairwise comparisons on the last day of the study when at least eight mice remained in each group. Differences between groups were considered significant when p≤0.05. Statistical significance of tumor volume and body weight was calculated using the Linear Mixed-Effects analysis in R software version 3.4.2 (using Janssen's internally developed Shiny application version 3.3), with treatment and time as fixed effects and animal as random effect. Logarithmic transformation (base 10) was performed if individual longitudinal response trajectories were not linear. The information derived from this model was used to make pairwise treatment comparisons to the control group or between all the treatment groups.

The subject of another series is EGFR-mutated NSCLC. The experiment in a line: FIH dose escalation study of lazertinib monotherapy. The class given is in vivo, human. Here is the method: The safety profile and preliminary efficacy of both agents in EGFR-mutated NSCLC population is based upon clinical experience of approximately 100 subjects in each study, including those enrolled into expansion cohorts at their respective RP2D.
In the current monotherapy dosing regimen, lazertinib is administered as a daily oral therapy, while JNJ-61186372 is administered intravenously weekly during Cycle 1, and then every other week thereafter, beginning with Cycle 2 Day 1.

[4] abbreviates: n=10/group, 10 mg/kg each agent.

Chain of mouse c-Met (P16056 25-1379): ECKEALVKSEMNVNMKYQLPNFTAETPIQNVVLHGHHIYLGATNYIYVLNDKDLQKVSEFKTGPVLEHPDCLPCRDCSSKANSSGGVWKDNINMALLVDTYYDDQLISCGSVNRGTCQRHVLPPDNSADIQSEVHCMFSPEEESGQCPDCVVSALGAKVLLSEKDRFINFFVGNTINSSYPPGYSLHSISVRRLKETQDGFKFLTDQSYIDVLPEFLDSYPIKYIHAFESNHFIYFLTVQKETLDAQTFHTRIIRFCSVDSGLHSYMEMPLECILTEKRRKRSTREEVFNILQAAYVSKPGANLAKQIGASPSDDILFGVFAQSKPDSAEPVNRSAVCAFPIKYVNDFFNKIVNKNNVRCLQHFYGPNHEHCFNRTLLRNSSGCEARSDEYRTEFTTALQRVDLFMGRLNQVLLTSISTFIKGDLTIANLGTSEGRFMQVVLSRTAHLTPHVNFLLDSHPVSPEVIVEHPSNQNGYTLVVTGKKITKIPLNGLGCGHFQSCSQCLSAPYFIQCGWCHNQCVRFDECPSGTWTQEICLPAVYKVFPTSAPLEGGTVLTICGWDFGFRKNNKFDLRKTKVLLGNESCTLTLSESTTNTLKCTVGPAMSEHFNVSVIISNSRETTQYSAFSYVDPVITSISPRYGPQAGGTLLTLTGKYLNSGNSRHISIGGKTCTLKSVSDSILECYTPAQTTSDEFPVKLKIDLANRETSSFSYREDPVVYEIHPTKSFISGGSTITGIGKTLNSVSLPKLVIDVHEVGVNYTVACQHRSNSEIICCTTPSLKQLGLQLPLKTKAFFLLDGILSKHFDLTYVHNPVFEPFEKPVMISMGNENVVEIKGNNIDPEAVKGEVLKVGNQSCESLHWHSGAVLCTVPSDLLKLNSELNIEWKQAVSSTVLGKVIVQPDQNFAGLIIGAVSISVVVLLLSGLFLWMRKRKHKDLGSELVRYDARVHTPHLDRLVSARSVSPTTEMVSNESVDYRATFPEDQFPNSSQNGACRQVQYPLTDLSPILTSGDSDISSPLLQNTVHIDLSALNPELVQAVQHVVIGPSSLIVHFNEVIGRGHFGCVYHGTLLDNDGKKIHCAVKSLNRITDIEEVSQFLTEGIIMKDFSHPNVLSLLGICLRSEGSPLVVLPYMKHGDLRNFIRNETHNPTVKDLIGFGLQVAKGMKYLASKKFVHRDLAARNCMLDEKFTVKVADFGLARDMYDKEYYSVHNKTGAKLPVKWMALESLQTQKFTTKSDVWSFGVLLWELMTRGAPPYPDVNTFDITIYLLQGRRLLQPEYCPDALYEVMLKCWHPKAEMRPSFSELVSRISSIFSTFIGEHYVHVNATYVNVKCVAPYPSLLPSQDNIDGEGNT

For the compound JNJ-372, in series [1], the “day found dead or euthanized” value was found to be 53 days, the “mice found dead or euthanized due to negative clinical signs” value was “One” and the “body weight change compared to the control group” value (shortened to “body weight change”) is given as “did not elicit significant body weight loss”. Moreover, in the series with mouse c-Met, the “binding to mouse c-Met” value is on record as “does not bind”. For the same compound, in series [2], the “TGI as compared to controls” value came out at 86%. For the same compound, the “binding to mouse EGFR” value with mouse EGFR is recorded as “does not bind”. For the same compound, the “TGI as compared to controls” value in the series with H1975-HGF xenografts turned out to be 70%. Moreover, in series [3], the “body weight change” value is reported as “did not elicit significant body weight loss”, the “day of euthanasia due to negative clinical signs” value was 43 days and the “animals euthanized due to negative clinical signs” value was “One”.

Take `C=CC(=O)Nc1cc(Nc2nccc(-c3cn(C)c4ccccc34)n2)c(OC)cc1N(C)CCN(C)C` [Osimertinib, reference compound]: in series [1], the “day found dead or euthanized” value was determined as 51 days, the “mice found dead or euthanized due to negative clinical signs” value is given as “One” and the “body weight change” value is recorded as “some transient body weight loss”. Further, in series [2], the “TGI as compared to controls” value is 111%. The “TGI as compared to controls” value in the series on H1975-HGF xenografts stood at 57%. Also, the “body weight change” value in series [3] is “some transient body weight loss”.

For the compound `C=CC(=O)Nc1cc(Nc2nccc(-n3cc(CN(C)C)c(-c4ccccc4)n3)n2)c(OC)cc1N1CCOCC1` [Lazertinib, N-(5-(4-(4-((dimethylamino)methyl)-3-phenyl-1H-pyrazol-1-yl)pyrimidin-2-ylamino)-4-methoxy-2-morpholinophenyl)acrylamide], the “body weight change” value in series [1] and in series [3] was “some transient body weight loss” throughout. The “dose from which clinical activity in the targeted population was demonstrated” value in the series with EGFR-mutated NSCLC (EGFR-mutated NSCLC) worked out at 240 mg. Besides, the DLTs result in the series on EGFR-mutated NSCLC (through doses up to 320 mg) is “no DLTs were observed”. For the same compound, the “TGI as compared to controls” value in series [2] is 112%; in the series on H1975-HGF xenografts it was 75%. Also, the “CRs (complete tumor regression, tumor not measurable on last day of analysis)” value in series [2] (setting [4]) is listed as 1 of 10. Further, the “CRs (complete tumor regression)” value in the series with H1975-HGF xenografts (setting [4]) is recorded as 2 of 10. For the same compound, in series [3], the “day of euthanasia due to negative clinical signs” value stood at 21 days. For the same compound, the “animals euthanized due to negative clinical signs” value in series [3] is given as “One”.
